We go through 17 compounds from PubChem BioAssay (NCI).

Where “and” joins values, the source holds several entries; their conditions need not be identical. Equal values may be shown once.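 Each compound was tested at five concentrations against cells in 96-well plates for 48 hours. GI50 marks 50% less growth. TGI denotes the concentration required for complete inhibition of growth.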

The test system of the first assay is SF-295 CNS. Description: inhibition of tumour cell growth, NCI panel, 48 h.
As to `COc1ccc(Cl)cc1Nc1nc(C(F)(F)F)ccc1C(=O)NN`, the GI50 is 1.97 µM and the TGI was determined as 11.7 µM.

The compound `CC(C)c1ccc2nc3ccc(C(=O)NCCN(C)C)cn3c(=O)c2c1` displayed a TGI of 23.8 µM.

For `C#C[C@]1(O)CC[C@H]2[C@@H]3CC=C4c5nc(Nc6ccccn6)sc5CC[C@]4(C)[C@H]3CC[C@@]21C`, the GI50 was 0.218 µM and the TGI stood at 0.489 µM.

As for `CSc1ccc(C2=Nn3c(nnc3-c3ccc(F)c(Cl)c3)SC2)cc1`, the GI50 was 3.57 µM and the TGI came out at 17.5 µM.

`CNC(=O)Nc1ccc(-c2nc(N3CCOCC3)nc3c2cnn3C2CCOCC2)cc1`: the GI50 was 0.0716 µM and the TGI came to 0.585 µM.

In the case of `NCCCCNCCCNC(=O)CNC(=O)CC(O)C(N)CCCC(NC(=O)C(CN)NC(=O)C(O)CNC(=O)CC(N)c1ccc(O)cc1)C(=O)O` (stereo not given), the TGI was greater than 10 µM.

Turning to `N/C(=N\OC(=O)c1ccccc1)C(C(=O)NOC(=O)c1ccccc1)C1CCCCC1` (stereo not given), the GI50 is 2.11 µM and the TGI amounted to 5.73 µM.

`CCOc1ccc(N=Nc2ccc3cc(/C(C)=N/NC(=O)/C(C#N)=C\c4ccc(N(CCC#N)CCC#N)cc4)c(=O)oc3c2)cc1` showed a TGI greater than 10 µM.

As for `CC(C)(C)OC(=O)NCC(C#N)CNC(=O)OC(C)(C)C`, the TGI was greater than 100 µM.

For `O=C(Nc1ccc(OC(F)(F)F)cc1)c1sccc1NCc1ccnc2ccccc12`, the GI50 is 2.63 µM and the TGI is greater than 45.7 µM.

Turning to `CCN(CC)c1ccc(NC(=S)NN(C)C)cc1`, the TGI is greater than 10 µM.

Turning to `COc1ccc(-c2cc(-c3ccc(Cl)cc3)c(C#N)c(=O)n2CCCCC(=O)Nc2ccccc2N)cc1`, the GI50 was 2.33 µM and the TGI is 5.96 µM.

Take `CN1CCCN(CCNc2nccc(-c3c(-c4cccc(O)c4)nc4sccn34)n2)S1(=O)=O`: the GI50 was 12.9 µM and 13.3 µM; the TGI was 32.1 µM and 38.8 µM.

As for `CCOC(=O)c1c(NC(=O)c2ccc(C(C)C)cc2)sc2c(CN(C)C)c(O)ccc12`, the GI50 was 1.86 µM and the TGI amounted to 3.45 µM.

With `COc1ccc(C(=O)N2c3ccccc3Sc3ccccc32)c(F)c1`, the GI50 was 0.395 µM and the TGI is greater than 100 µM.

In the case of `CC(O)CNC1=CC(=O)C(=O)c2ccccc21` (stereo not given), the TGI is 27 µM.

`CC1(C)N=C(N)N=C(N)N1c1ccc(CCc2ccccc2)c(Cl)c1`: the GI50 was 0.0529 µM and the TGI was 11.3 µM.

The subject of another assay is HL-60(TB) leukemia. Put plainly: inhibition of tumour cell growth, NCI panel, 48 h.
In the case of `COc1ccc(Cl)cc1Nc1nc(C(F)(F)F)ccc1C(=O)NN`, the GI50 was 2.75 µM and the TGI was 18.6 µM.

Consider `CC(C)c1ccc2nc3ccc(C(=O)NCCN(C)C)cn3c(=O)c2c1`, for which the TGI is 42.1 µM.

Consider `C#C[C@]1(O)CC[C@H]2[C@@H]3CC=C4c5nc(Nc6ccccn6)sc5CC[C@]4(C)[C@H]3CC[C@@]21C`, for which the GI50 was 0.398 µM and the TGI was found to be 1.96 µM.

`CSc1ccc(C2=Nn3c(nnc3-c3ccc(F)c(Cl)c3)SC2)cc1`: the GI50 is 5.39 µM and the TGI is greater than 100 µM.

As for `CNC(=O)Nc1ccc(-c2nc(N3CCOCC3)nc3c2cnn3C2CCOCC2)cc1`, the GI50 was 1.01 µM and the TGI is greater than 100 µM.

As to `NCCCCNCCCNC(=O)CNC(=O)CC(O)C(N)CCCC(NC(=O)C(CN)NC(=O)C(O)CNC(=O)CC(N)c1ccc(O)cc1)C(=O)O` (stereo not given), the TGI is greater than 10 µM.

As to `N/C(=N\OC(=O)c1ccccc1)C(C(=O)NOC(=O)c1ccccc1)C1CCCCC1` (stereo not given), the GI50 is 2.38 µM and the TGI turned out to be 6.07 µM.

On to `CCOc1ccc(N=Nc2ccc3cc(/C(C)=N/NC(=O)/C(C#N)=C\c4ccc(N(CCC#N)CCC#N)cc4)c(=O)oc3c2)cc1`, for which the TGI was greater than 10 µM.

For the compound `CC(C)(C)OC(=O)NCC(C#N)CNC(=O)OC(C)(C)C`, the TGI was greater than 100 µM.

For the compound `O=C(Nc1ccc(OC(F)(F)F)cc1)c1sccc1NCc1ccnc2ccccc12`, the GI50 is 1.78 µM and the TGI amounted to 19.3 µM.

Compound `CCN(CC)c1ccc(NC(=S)NN(C)C)cc1` had a TGI greater than 10 µM.

In the case of `COc1ccc(-c2cc(-c3ccc(Cl)cc3)c(C#N)c(=O)n2CCCCC(=O)Nc2ccccc2N)cc1`, the GI50 is 2.08 µM and the TGI worked out at 5.7 µM.

For the compound `CN1CCCN(CCNc2nccc(-c3c(-c4cccc(O)c4)nc4sccn34)n2)S1(=O)=O`, the GI50 was 14.1 µM and 11.3 µM; the TGI was 38.3 µM and 32 µM.

As to `CCOC(=O)c1c(NC(=O)c2ccc(C(C)C)cc2)sc2c(CN(C)C)c(O)ccc12`, the GI50 is 1.77 µM and the TGI came out at 4.2 µM.

For `COc1ccc(C(=O)N2c3ccccc3Sc3ccccc32)c(F)c1`, the GI50 was 0.325 µM and the TGI was greater than 100 µM.

The compound `CC(O)CNC1=CC(=O)C(=O)c2ccccc21` (stereo not given) registered a TGI of 84.4 µM.

`CC1(C)N=C(N)N=C(N)N1c1ccc(CCc2ccccc2)c(Cl)c1`: the GI50 was 0.0473 µM and the TGI came out at 2.72 µM.

For a further assay, the system named is TK-10 renal. Put plainly: inhibition of tumour cell growth, NCI panel, 48 h.
Regarding `COc1ccc(Cl)cc1Nc1nc(C(F)(F)F)ccc1C(=O)NN`, the GI50 was 3.81 µM and the TGI is greater than 100 µM.

Turning to `CC(C)c1ccc2nc3ccc(C(=O)NCCN(C)C)cn3c(=O)c2c1`, the TGI stood at 34.3 µM.

Regarding `C#C[C@]1(O)CC[C@H]2[C@@H]3CC=C4c5nc(Nc6ccccn6)sc5CC[C@]4(C)[C@H]3CC[C@@]21C`, the GI50 was 2.22 µM and the TGI worked out at 5.08 µM.

As for `CSc1ccc(C2=Nn3c(nnc3-c3ccc(F)c(Cl)c3)SC2)cc1`, the GI50 was 7.52 µM and the TGI was found to be 21.2 µM.

As for `CNC(=O)Nc1ccc(-c2nc(N3CCOCC3)nc3c2cnn3C2CCOCC2)cc1`, the GI50 is 0.172 µM and the TGI is 1.47 µM.

Regarding `NCCCCNCCCNC(=O)CNC(=O)CC(O)C(N)CCCC(NC(=O)C(CN)NC(=O)C(O)CNC(=O)CC(N)c1ccc(O)cc1)C(=O)O` (stereo not given), the TGI is greater than 10 µM.

With `N/C(=N\OC(=O)c1ccccc1)C(C(=O)NOC(=O)c1ccccc1)C1CCCCC1` (stereo not given), the GI50 was 12.4 µM and the TGI turned out to be 26.9 µM.

In turn, `CCOc1ccc(N=Nc2ccc3cc(/C(C)=N/NC(=O)/C(C#N)=C\c4ccc(N(CCC#N)CCC#N)cc4)c(=O)oc3c2)cc1` yielded a TGI greater than 10 µM.

As for `CC(C)(C)OC(=O)NCC(C#N)CNC(=O)OC(C)(C)C`, the TGI is greater than 100 µM.
